Counter-ions that a name gives are not always drawn.
What was measured:
activated human C1 = activated human C1 (Homo sapiens, UniProt P09871); assay: Test Code 026 (C1 inhibitor); assay type: biochemical; conditions: serial twofold dilution assay; higher well number indicates higher activity
[1] = test system: serum complement activity; assay: Guinea Pig Intraperitoneal Test (GPIP); assay type: in vivo; conditions: 200 mg/kg i.p.; for In vivo Activity Guinea Pigs Intraperitoneal % Lowering, 30 minutes: blood sample 30 minutes after injection; for In vivo Activity Guinea Pigs Intraperitoneal % Lowering, 60 minutes: blood sample 60 minutes after injection; for In vivo Activity Guinea Pigs Intraperitoneal % Lowering, 120 minutes: blood sample 120 minutes after injection
Procedure: (§1) An active inhibitor protects C2 from C1 and C4; (ii) Test Code 036 (C-Shunt inhibitor)--In this test human erythrocytes rendered fragile are lysed in autologous serum via the shunt pathway activated by cobra venom factor in the presence of appropriate dilutions of the test compound. Inhibition of the shunt pathway results in failure of lysis; (iii) Cap 50 Test--Here, appropriate amounts of the test compound are added to a pool of guinea pig serum in vitro, after which the complement level is determined in undiluted serum by the serum capillary tube assay of U.S. Pat. No. 3,876,376. The concentration of compound inhibiting 50% is reported; and (iv) Guinea Pig Intraperitoneal Test (GPIP)--Guinea pigs weighing about 300 g are dosed intraperitoneally (i.p.) with 200 mg/kg of the test compound dissolved in saline and adjusted to pH 7-8. Approximately 0.4 ml blood samples, taken by orbital sinus puncture 30 minutes and one hour after injections, are collected directly into centrifuge tubes; 5 ml blood samples, taken by decapitation 2 hours after injection, are collected directly into diSPo® beakers. The samples were allowed to clot, centrifuged, and the resultant sera were assayed for complement activity using the capillary complement assay. Percent inhibition is calculated by comparison with simultaneous controls. The results of the GPIP appear in Table I together with results of Test Code 026, 036 and Cap 50.

complement system = conditions: reported in the literature; cited from earlier work
[2] = test system: shunt pathway activated by cobra venom factor (lysis of human erythrocytes in autologous serum); assay: Test Code 036 (C-Shunt inhibitor); assay type: cell-based; conditions: serial twofold dilution assay; higher well number indicates higher activity
Procedure: as §1, with “The results of the GPIP appear in Table I together with results of Test Code 026, 036 and Cap 50.” left out

[3] = test system: hereditary angioneurotic edema; conditions: reported in the literature; cited from earlier work
human serum complement = conditions: in vitro and in vivo, judged by reduction in total hemolytic complement activity; cited from earlier work

Molecule: O=C(Nc1cc2ccc(S(=O)(=O)[O-])cc2cc1S(=O)(=O)[O-])Nc1cc2ccc(S(=O)(=O)[O-])cc2cc1S(=O)(=O)[O-].[Na+].[Na+].[Na+].[Na+] [3,3'-Ureylenedi-2,7-naphthalenedisulfonic acid, tetrasodium salt]
- C1 026 Wells (activated human C1): +3 Wells

Molecule: O=C(Nc1cc(S(=O)(=O)[O-])cc2cc(S(=O)(=O)[O-])cc(S(=O)(=O)[O-])c12)Nc1cc(S(=O)(=O)[O-])cc2cc(S(=O)(=O)[O-])cc(S(=O)(=O)[O-])c12.[Na+].[Na+].[Na+].[Na+].[Na+].[Na+] [8,8'-Ureylenedi-1,3,6-naphthalenetrisulfonic acid, hexasodium salt]
- In vivo Activity Guinea Pigs Intraperitoneal % Lowering, 30 minutes [1]: 25%
- In vivo Activity Guinea Pigs Intraperitoneal % Lowering, 60 minutes [1]: 61%
- In vivo Activity Guinea Pigs Intraperitoneal % Lowering, 120 minutes [1]: 65%
- C1 026 Wells (activated human C1): +5 Wells

Molecule: Nc1ccc2cc(S(=O)(=O)[O-])cc(O)c2c1N=Nc1ccc(NC(=O)Nc2ccc(N=Nc3c(N)ccc4cc(S(=O)(=O)[O-])cc(O)c34)c(S(=O)(=O)[O-])c2)cc1S(=O)(=O)[O-].[Na+].[Na+].[Na+].[Na+] [chlorazol fast pink, 3,3'-ureylenebis[6-(2-amino-8-hydroxy-6-sulfo-1-naphthylazo)benzenesulfonic acid], tetrasodium salt]
- anti-complementary effect (complement system): anti-complementary effect

Molecule: O=C(Nc1cc(S(=O)(=O)[O-])cc2ccc(S(=O)(=O)[O-])cc12)Nc1cc(S(=O)(=O)[O-])cc2ccc(S(=O)(=O)[O-])cc12.[Na+].[Na+].[Na+].[Na+] [4,4'-Ureylenedi-2,6-naphthalenedisulfonic acid, tetrasodium salt]
- C1 026 Wells (activated human C1): +2 Wells

Molecule: O=C(Nc1cc(S(=O)(=O)[O-])cc2cccc(S(=O)(=O)[O-])c12)Nc1cc(S(=O)(=O)[O-])cc2cccc(S(=O)(=O)[O-])c12.[Na+].[Na+].[Na+].[Na+] [8,8'-Ureylenedi-1,6-naphthalenedisulfonic acid, tetrasodium salt]
- C1 026 Wells (activated human C1): +3 Wells

Molecule: O=C(Nc1ccc(S(=O)(=O)[O-])c2cc(S(=O)(=O)[O-])cc(S(=O)(=O)[O-])c12)Nc1ccc(S(=O)(=O)[O-])c2cc(S(=O)(=O)[O-])cc(S(=O)(=O)[O-])c12.[Na+].[Na+].[Na+].[Na+].[Na+].[Na+] [8,8'-Ureylenedi-1,3,5-naphthalenetrisulfonic acid, hexasodium salt]
- In vivo Activity Guinea Pigs Intraperitoneal % Lowering, 30 minutes [1]: 92%
- In vivo Activity Guinea Pigs Intraperitoneal % Lowering, 60 minutes [1]: 92%
- In vivo Activity Guinea Pigs Intraperitoneal % Lowering, 120 minutes [1]: 94%

Molecule: O=S(=O)([O-])c1cc(NC(=S)Nc2cc(S(=O)(=O)[O-])cc3cc(S(=O)(=O)[O-])cc(S(=O)(=O)[O-])c23)c2c(S(=O)(=O)[O-])cc(S(=O)(=O)[O-])cc2c1.[Na+].[Na+].[Na+].[Na+].[Na+].[Na+] [8,8'-(2-Thioureylene)di-1,3,6-naphthalenetrisulfonic acid, hexasodium salt]
- In vivo Activity Guinea Pigs Intraperitoneal % Lowering, 30 minutes [1]: 41%
- In vivo Activity Guinea Pigs Intraperitoneal % Lowering, 60 minutes [1]: 20%
- In vivo Activity Guinea Pigs Intraperitoneal % Lowering, 120 minutes [1]: 42%
- C1 026 Wells (activated human C1): +5 Wells

Molecule: O=C(Nc1ccc(S(=O)(=O)[O-])c2ccccc12)Nc1ccc(S(=O)(=O)[O-])c2ccccc12.[Na+].[Na+] [4,4'-Ureylenedi-1-naphthalenesulfonic acid, disodium salt]
- C1 026 Wells (activated human C1): +2 Wells

Molecule: O=C(Nc1ccc2c(S(=O)(=O)[O-])cc(S(=O)(=O)[O-])cc2c1)Nc1ccc2c(S(=O)(=O)[O-])cc(S(=O)(=O)[O-])cc2c1.[Na+].[Na+].[Na+].[Na+] [6,6'-Ureylenedi-1,3-naphthalenedisulfonic acid, tetrasodium salt]
- C1 026 Wells (activated human C1): +3 Wells

Molecule: O=C(Nc1cc(S(=O)(=O)[O-])c2cc(S(=O)(=O)[O-])cc(S(=O)(=O)[O-])c2c1)Nc1cc(S(=O)(=O)[O-])c2cc(S(=O)(=O)[O-])cc(S(=O)(=O)[O-])c2c1.[Na+].[Na+].[Na+].[Na+].[Na+].[Na+] [7,7'-Ureylenedi-1,3,5-naphthalenetrisulfonic acid, hexasodium salt]
- C1 026 Wells (activated human C1): +6 Wells
- C-Shunt Inhibition 036 Wells [2]: +1 Wells

Molecule: O=C(Nc1ccc2c(O)cc(S(=O)(=O)O)cc2c1)Nc1ccc2c(O)cc(S(=O)(=O)O)cc2c1 [6,6'-ureylenebis(1-hydroxy-3-naphthalenesulfonic acid)]
- C1 026 Wells (activated human C1): +1 Wells

Molecule: NC[C@H]1CC[C@H](C(=O)O)CC1 [tranexamic acid]
- success in the treatment of hereditary angioneurotic edema [3]: used with success

Molecule: O=C(Nc1cc2c(O)cc(S(=O)(=O)[O-])cc2cc1S(=O)(=O)[O-])Nc1cc2c(O)cc(S(=O)(=O)[O-])cc2cc1S(=O)(=O)[O-].[Na+].[Na+].[Na+].[Na+] [3,3'-Ureylenebis(5-hydroxy-2,7-naphthalenedisulfonic acid), tetrasodium salt]
- In vivo Activity Guinea Pigs Intraperitoneal % Lowering, 30 minutes [1]: 4%
- In vivo Activity Guinea Pigs Intraperitoneal % Lowering, 60 minutes [1]: 1%
- In vivo Activity Guinea Pigs Intraperitoneal % Lowering, 120 minutes [1]: 28%
- C1 026 Wells (activated human C1): +4 Wells

Molecule: O=C(Nc1ccc2cc(S(=O)(=O)O)cc(O)c2c1)Nc1ccc2cc(S(=O)(=O)O)cc(O)c2c1 [7,7'-ureylenebis(1-hydroxy-3-naphthalenesulfonic acid)]
- C1 026 Wells (activated human C1): +2 Wells

Molecule: pentosanpolysulfoester
- anticomplementary activity on human serum (human serum complement): anticomplementary activity

Molecule: O=C(Nc1ccc(S(=O)(=O)[O-])c2ccc(S(=O)(=O)[O-])cc12)Nc1ccc(S(=O)(=O)[O-])c2ccc(S(=O)(=O)[O-])cc12.[Na+].[Na+].[Na+].[Na+] [4,4'-Ureylenedi-1,6-naphthalenedisulfonic acid, tetrasodium salt]
- C1 026 Wells (activated human C1): +3 Wells

Molecule: O=C(Nc1cc(S(=O)(=O)O)cc2cc(S(=O)(=O)O)cc(OS(=O)(=O)c3ccccc3)c12)Nc1cc(S(=O)(=O)O)cc2cc(S(=O)(=O)O)cc(OS(=O)(=O)c3ccccc3)c12 [4,4'-Ureylenebis(5-hydroxy-2,7-naphthalenedisulfonic acid), tetrasodium salt dibenzenesulfonate]
- C1 026 Wells (activated human C1): +3 Wells

Molecule: O=C(Nc1cc(S(=O)(=O)[O-])cc2cc(S(=O)(=O)[O-])ccc12)Nc1cc(S(=O)(=O)[O-])cc2cc(S(=O)(=O)[O-])ccc12.[Na+].[Na+].[Na+].[Na+] [4,4'-Ureylenedi-2,7-naphthalenedisulfonic acid, tetrasodium salt]
- C1 026 Wells (activated human C1): +3 Wells

Molecule: O=C(Nc1cc(S(=O)(=O)[O-])c2cc([N+](=O)[O-])cc(S(=O)(=O)[O-])c2c1)Nc1cc(S(=O)(=O)[O-])c2cc([N+](=O)[O-])cc(S(=O)(=O)[O-])c2c1.[Na+].[Na+].[Na+].[Na+] [3,3'-Ureylenebis(7-nitro-1,5-naphthalenedisulfonic acid), tetrasodium salt]
- C1 026 Wells (activated human C1): +3 Wells

Molecule: heparin
- anti-complementary effect (complement system): anti-complementary effect

Molecule: NCCCCCC(=O)O [epsilon-aminocaproic acid]
- success in the treatment of hereditary angioneurotic edema [3]: used with success
